# Laboratory results reported in article PMC3199943, “Screening the MayBridge Rule of 3 Fragment Library for Compounds That Interact with the Trypanosoma brucei myo-Inositol-3-Phosphate Synthase and/or Show Trypanocidal Activity” (Molecular Biology International, 2011).
# Where two headings read alike, the source gives them in different places.
# Key:
# [1] = tested on: HeLa cells; assay: cells; conditions: for HeLa Cells Alamar Blue: Supplementary Table 1, compound 0.5 mM, percentage of controls, mean ± SD (n=3) or SE (n=2); for viability at 500 µM: 65 h
# In short: (§1)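 HeLa and A549 cells grown in DMEM with 10% FCS and 2 mM L-Glutamine were seeded at 2 × 10^4 cells/well. They were exposed to compounds for ~65 hours, then Alamar Blue was added for a further 5 hours to measure viability.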
# [2] = target: T1, TbINO1 (Trypanosoma brucei brucei, UniProt Q5QQ46); assay: biochemical; type: binding
# T1 sequence (Q5QQ46 1-528): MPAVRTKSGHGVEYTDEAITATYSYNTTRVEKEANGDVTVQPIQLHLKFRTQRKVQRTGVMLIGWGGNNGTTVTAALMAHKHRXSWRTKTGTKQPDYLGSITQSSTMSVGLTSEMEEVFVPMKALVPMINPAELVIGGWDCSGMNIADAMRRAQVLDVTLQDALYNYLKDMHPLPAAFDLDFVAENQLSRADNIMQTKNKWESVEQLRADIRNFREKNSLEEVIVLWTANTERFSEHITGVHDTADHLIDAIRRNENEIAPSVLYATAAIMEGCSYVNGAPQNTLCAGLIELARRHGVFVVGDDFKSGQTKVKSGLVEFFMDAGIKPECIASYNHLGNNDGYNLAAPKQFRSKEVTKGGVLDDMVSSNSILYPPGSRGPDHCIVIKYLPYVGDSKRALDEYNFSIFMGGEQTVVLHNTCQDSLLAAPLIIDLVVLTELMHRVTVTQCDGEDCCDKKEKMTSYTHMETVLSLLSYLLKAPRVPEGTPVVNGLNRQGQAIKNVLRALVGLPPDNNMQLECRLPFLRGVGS
# [3] = tested on: A549 cells; assay: Cytotoxicity against A549 cells, Alamar Blue; type: cell-based; conditions: Supplementary Table 1, compound 0.5 mM, percentage of controls (n=1); for viability at 500 µM: Homo sapiens, A549, 65 h
# In short: as §1
# [4] = Supplementary Table 1, compound 1mM, mean ± SD from Boltzman curve fitting
# [5] = Homo sapiens, HeLa, read-out: HeLa Cells Alamar Blue
# [6] = read-out: Tb Ino1 Tm Shift [˚C]
# [7] = Supplementary Table 1, compound 1mM, mean ± SD from Boltzman curve fitting, read-out: Tb Ino1 Tm Shift [˚C]
# [8] = Homo sapiens, HeLa, read-out: HeLa Cells Alamar Blue (% survival)
smiles,measurement,setting,value
"Cc1nn(C)c2sc(CO)cc12 [compound 467, (1,3‐dimethyl‐1H‐thieno[2,3‐c]pyrazol‐5‐yl)methanol]",HeLa Cells Alamar Blue,[1],67.5 ± 16.4 percentage of controls
same,Tb Ino1 Tm Shift [˚C],[2]; [4],0.35 ± 0.09 °C
same,A549 Cells Alamar Blue,[3],70.7 percentage of controls
"N#Cc1cc(N)ccc1-n1cccc1 [compound 471, 5‐amino‐2‐(1H‐pyrrol‐1‐yl)benzonitrile]",viability at 500 µM,[1]; [5],89.3 ± 18.8%
same,ΔTm at 1000 µM,[2]; [6],0.1 ± 0.08 °C
same,viability at 500 µM,[3],81.4%
"OCc1cc(F)cc2c1OCOC2 [compound 476, (6‐fluoro‐4H‐1,3‐benzodioxin‐8‐yl)methanol]",HeLa Cells Alamar Blue,[1],102.6 ± 9.4 percentage of controls
same,Tb Ino1 Tm Shift [˚C],[2]; [4],0.01 ± 0.07 °C
same,A549 Cells Alamar Blue,[3],78.9 percentage of controls
"N#Cc1cc(-c2ccccc2)oc1N [compound 477, 2‐amino‐5‐phenyl‐3‐furonitrile]",viability at 500 µM,[1]; [5],98.3 ± 18.6%
same,ΔTm at 1000 µM,[2]; [7],0.04 ± 0.1 °C
same,viability at 500 µM,[3],97.4%
"O=C(O)CCC(=O)c1cccs1 [compound 478, 4-oxo-4-(2-thienyl)butanoic acid]",viability at 500 µM,[1]; [5],106 ± 9.3%
same,viability at 500 µM,[1]; [8],106 ± 9.3%
same,ΔTm at 1000 µM,[2]; read-out: TbIno1 Tm shift [°C],2.58 ± 0.05 °C
same,viability at 500 µM,[3],92.3%
"O=C(O)c1cc2sccc2s1 [compound 479, thieno[3,2‐b]thiophene‐2‐carboxylic acid]",viability at 500 µM,[1]; [5],109 ± 11.4%
same,ΔTm at 1000 µM,[2]; [6],0.21 ± 0.07 °C
same,viability at 500 µM,[3],102%
"COc1cccc(OC)c1SC [compound 481, 1,3‐dimethoxy‐2‐(methylthio)benzene]",viability at 500 µM,[1]; [5],104 ± 17.6%
same,ΔTm at 1000 µM,[2]; [6],0.07 ± 0.08 °C
same,viability at 500 µM,[3],103%
"COC(=O)c1ccc(C)c(Cl)c1 [compound 484, methyl 3‐chloro‐4‐methylbenzoate]",viability at 500 µM,[1]; [5],112 ± 12%
same,ΔTm at 1000 µM,[2]; [6],0.1 ± 0.07 °C
same,viability at 500 µM,[3],120%
"Cc1csc2ncnc(Cl)c12 [compound 486, 4‐chloro‐5‐methylthieno[2,3‐d]pyrimidine]",viability at 500 µM,[1]; [5],101 ± 12.2%
same,ΔTm at 1000 µM,[2]; [6],0.24 ± 0.07 °C
same,viability at 500 µM,[3],111%
"CC1(C)C=Cc2cc(C#N)ccc2O1 [compound 487, 2,2‐dimethyl‐2H‐chromene‐6‐carbonitrile]",viability at 500 µM,[1]; [5],112 ± 14.6%
same,ΔTm at 1000 µM,[2]; [6],0 °C
same,viability at 500 µM,[3],108%
"Cc1nccc(-c2cccc(N)c2)n1 [compound 493, 3‐(2‐methylpyrimidin‐4‐yl)aniline]",viability at 500 µM,[1]; [5],65.9 ± 17%
same,ΔTm at 1000 µM,[2]; [6],0.15 ± 0.07 °C
same,viability at 500 µM,[3],92.6%
"CCOC(=O)Cc1csc(C)n1 [compound 494, ethyl 2‐(2‐methyl‐1,3‐thiazol‐4‐yl)acetate]",viability at 500 µM,[1]; [5],103 ± 17.9%
same,ΔTm at 1000 µM,[2]; [6],0.99 ± 0.08 °C
same,viability at 500 µM,[3],120%
"Cl.NCc1ccc2c(c1)CCO2 [compound 496, 2,3‐dihydrobenzo[b]furan‐5‐ylmethylamine hydrochloride]",HeLa Cells Alamar Blue,[1],99.8 ± 15.5 percentage of controls
same,Tb Ino1 Tm Shift [˚C],[2]; [4],0.06 ± 0.08 °C
same,A549 Cells Alamar Blue,[3],96.7 percentage of controls
"Nc1cccc(Oc2ccccn2)c1 [compound 506, 3‐(pyridin‐2‐yloxy)aniline]",viability at 500 µM,[1]; [5],99.2 ± 16.2%
same,ΔTm at 1000 µM,[2]; [6],0.23 ± 0.09 °C
same,viability at 500 µM,[3],72.5%
"COc1ccc(Cl)cc1C(=O)O [compound 508, 5‐chloro‐2‐methoxybenzoic acid]",viability at 500 µM,[1]; [5],78.4 ± 17.3%
same,ΔTm at 1000 µM,[2]; [6],0.07 ± 0.07 °C
same,viability at 500 µM,[3],101%
"N#Cc1ccccc1OC(F)(F)F [compound 509, 2‐(trifluoromethoxy)benzonitrile]",viability at 500 µM,[1]; [5],106 ± 16.9%
same,ΔTm at 1000 µM,[2]; [6],0.01 ± 0.08 °C
same,viability at 500 µM,[3],110%
"Cc1ccc2cc(C(=O)O)ccc2n1 [compound 510, 2‐methyl‐6‐quinolinecarboxylic acid]",viability at 500 µM,[1]; [5],117 ± 10.8%
same,ΔTm at 1000 µM,[2]; [6],0.12 ± 0.08 °C
same,viability at 500 µM,[3],126%
"O=C(O)c1cccc(-n2cccc2)c1 [compound 511, 3‐(1H‐pyrrol‐1‐yl)benzoic acid]",viability at 500 µM,[1]; [5],102 ± 12.3%
same,ΔTm at 1000 µM,[2]; [6],0.6 ± 0.08 °C
same,viability at 500 µM,[3],73%
"O=C(O)c1ccccc1-n1cccc1 [compound 513, 2-(1H-pyrrol-1-yl)benzoic acid]",viability at 500 µM,[1]; [5],98.5 ± 6.5%
same,viability at 500 µM,[1]; [8],98.5 ± 6.5%
same,ΔTm at 1000 µM,"[2]; compound 1 mM, mean ± SD (n = 3), read-out: TbIno1 Tm shift [°C]",3.14 ± 0.09 °C
same,viability at 500 µM,[3],64.4%
"Nc1ccc2oc3c(c2c1)CCCC3 [compound 516, 6,7,8,9‐tetrahydrodibenzo[b,d]furan‐2‐amine]",HeLa Cells Alamar Blue,[1],108 ± 5.2 percentage of controls
same,Tb Ino1 Tm Shift [˚C],[2]; [4],0.2 ± 0.07 °C
same,A549 Cells Alamar Blue,[3],68.2 percentage of controls
"N#Cc1ncccc1N1CCCCC1 [compound 517, 3‐piperidin‐1‐ylpyridine‐2‐carbonitrile]",viability at 500 µM,[1]; [5],51.2 ± 17.9%
same,ΔTm at 1000 µM,[2]; [6],0.16 ± 0.07 °C
same,viability at 500 µM,[3],54.7%
"O=C(O)c1ccccc1-c1ccco1 [compound 520, 2-(2-furyl)benzoic acid]",viability at 500 µM,[1]; [5],73 ± 11.5%
same,viability at 500 µM,[1]; [8],73 ± 11.5%
same,CC50,"[1]; Homo sapiens, HeLa, read-out: HeLa ED50",> 20 mM
same,ΔTm at 1000 µM,[2]; read-out: TbIno1 Tm shift [°C],4.29 ± 0.07 °C
same,viability at 500 µM,[3],124%
"Cc1oc(-c2ccccc2)cc1CO [compound 521, (2‐methyl‐5‐phenyl‐3‐furyl)methanol]",viability at 500 µM,[1]; [5],41.5 ± 15%
same,ΔTm at 1000 µM,[2]; [6],1.27 ± 0.07 °C
same,viability at 500 µM,[3],57.1%
"Cc1cc(CO)c(-c2ccccc2)o1 [compound 522, (5-methyl-2-phenyl-3-furyl)methanol]",viability at 500 µM,[1]; [5],24.3 ± 17.4%
same,viability at 500 µM,[1]; [8],24.3 ± 17.4%
same,ΔTm at 1000 µM,[2]; read-out: TbIno1 Tm shift [°C],1.61 ± 0.06 °C
same,viability at 500 µM,[3],27.1%
"COC(=O)c1ccc(F)cc1Cl [compound 531, methyl 2‐chloro‐4‐fluorobenzoate]",viability at 500 µM,[1]; [5],84 ± 11.8%
same,ΔTm at 1000 µM,[2]; [6],0.25 ± 0.07 °C
same,viability at 500 µM,[3],75.7%
"NC(=O)c1ccccc1C(F)(F)F [compound 532, 2‐(trifluoromethyl)benzamide]",viability at 500 µM,[1]; [5],88.3 ± 6.5%
same,ΔTm at 1000 µM,[2]; [6],0.43 ± 0.07 °C
same,viability at 500 µM,[3],59.4%
"O=C(O)CCc1c[nH]c2ccccc12 [compound 533, 3‐(1H‐indol‐3‐yl)propanoic acid]",viability at 500 µM,[1]; [5],94.9 ± 6%
same,ΔTm at 1000 µM,[2]; [6],0.73 ± 0.07 °C
same,viability at 500 µM,[3],67.2%
"CC(=O)Nc1ccc2c(c1)CCC2=O [compound 535, N1‐(1‐oxo‐2,3‐dihydro‐1H‐inden‐5‐yl)acetamide]",HeLa Cells Alamar Blue,[1],87.3 ± 4.6 percentage of controls
same,Tb Ino1 Tm Shift [˚C],[2]; [4],0.21 ± 0.07 °C
same,A549 Cells Alamar Blue,[3],76.5 percentage of controls
"Cc1[nH]c2ccc(C(=O)O)cc2c1C [compound 537, 2,3‐dimethyl‐1H‐indole‐5‐carboxylic acid]",viability at 500 µM,[1]; [5],89.3 ± 2.4%
same,ΔTm at 1000 µM,[2]; [6],0.7 ± 0.08 °C
same,viability at 500 µM,[3],74.5%
"CC(=O)Oc1ccc(C)c2c1CCC2 [compound 541, 7‐methyl‐2,3‐dihydro‐1H‐inden‐4‐yl acetate]",HeLa Cells Alamar Blue,[1],79.8 ± 6.6 percentage of controls
same,Tb Ino1 Tm Shift [˚C],[2]; [4],0.01 ± 0.07 °C
same,A549 Cells Alamar Blue,[3],93.1 percentage of controls
"OCc1ccc(-c2cccs2)cc1 [compound 544, (4‐thien‐2‐ylphenyl)methanol]",viability at 500 µM,[1]; [5],74.7 ± 10.2%
same,ΔTm at 1000 µM,[2]; [6],0.16 ± 0.08 °C
same,viability at 500 µM,[3],80%
"Cc1nc(-c2ccc(N)cc2)cs1 [compound 547, 4‐(2‐methyl‐1,3‐thiazol‐4‐yl)phenylamine]",viability at 500 µM,[1]; [5],74.3 ± 11%
same,ΔTm at 1000 µM,[2]; [6],0.12 ± 0.07 °C
same,viability at 500 µM,[3],63.2%
"NCc1cccc(CN2CCCC2)c1 [compound 550, [3‐(1‐pyrrolidinylmethyl)phenyl]methanamine]",HeLa Cells Alamar Blue,[1],47.8 ± 11.7 percentage of controls
same,Tb Ino1 Tm Shift [˚C],[2]; [4],0.03 ± 0.07 °C
same,A549 Cells Alamar Blue,[3],108.7 percentage of controls
"CN1C2CCC1CC(=NO)C2.Cl [compound 552, 8‐methyl‐8‐azabicyclo[3.2.1]octan‐3‐one oxime hydrochloride]",HeLa Cells Alamar Blue,[1],103.5 ± 9.7 percentage of controls
same,Tb Ino1 Tm Shift [˚C],[2]; [4],0 ± 0.09 °C
same,A549 Cells Alamar Blue,[3],105.3 percentage of controls
"O=C(O)c1cnccc1C(F)(F)F [compound 553, 4‐(trifluoromethyl)nicotinic acid]",viability at 500 µM,[1]; [5],102 ± 12.4%
same,ΔTm at 1000 µM,[2]; [6],0.28 ± 0.07 °C
same,viability at 500 µM,[3],103%
"CN(N)c1cc(C(F)(F)F)ccn1 [compound 554, 2‐(1‐methylhydrazino)‐4‐(trifluoromethyl)pyridine]",HeLa Cells Alamar Blue,[1],95.6 ± 16.7 percentage of controls
same,Tb Ino1 Tm Shift [˚C],[2]; [4],0.15 ± 0.08 °C
same,A549 Cells Alamar Blue,[3],96.1 percentage of controls
"O=C(O)c1cc2ccccc2cn1 [compound 555, isoquinoline‐3‐carboxylic acid hydrate]",viability at 500 µM,[1]; [5],92.1 ± 10.1%
same,ΔTm at 1000 µM,[2]; [7],0.5 ± 0.09 °C
same,viability at 500 µM,[3],100%
"OCc1ccc(-c2ccccn2)s1 [compound 556, [5‐(2‐pyridinyl)‐2‐thienyl]methanol]",viability at 500 µM,[1]; [5],70.2 ± 11%
same,ΔTm at 1000 µM,[2]; [6],0.19 ± 0.08 °C
same,viability at 500 µM,[3],93.9%
